Assay [1] in a line: Inhibition of ERK phosphorylation in LPS-stimulated mouse PEC by HTRF assay.
Assay [2] has as its target Dual specificity mitogen-activated protein kinase kinase 1 (Homo sapiens, UniProt Q02750). Nature of the assay: Inhibition of MEK1 by HTRF assay. For orientation: In TR-FRET formats the signal depends on donor and acceptor labels being close together.
Assay [3] concerns the target T1, Mitogen-activated protein kinase kinase kinase 8 (Homo sapiens, UniProt P41279). Nature of the assay: Inhibition of human recombinant COT by HTRF-based assay.
In assay [4] the target is T1, Mitogen-activated protein kinase kinase kinase 8. Nature of the assay: Inhibition of COT by cell-based HTRF assay.

pIC50: −log10 of the molar value.

The source of these data is ChEMBL document CHEMBL1141695, “Discovery of thieno[2,3-c]pyridines as potent COT inhibitors” (Bioorg Med Chem Lett, 2008).

T1 sequence (P41279 whole entry): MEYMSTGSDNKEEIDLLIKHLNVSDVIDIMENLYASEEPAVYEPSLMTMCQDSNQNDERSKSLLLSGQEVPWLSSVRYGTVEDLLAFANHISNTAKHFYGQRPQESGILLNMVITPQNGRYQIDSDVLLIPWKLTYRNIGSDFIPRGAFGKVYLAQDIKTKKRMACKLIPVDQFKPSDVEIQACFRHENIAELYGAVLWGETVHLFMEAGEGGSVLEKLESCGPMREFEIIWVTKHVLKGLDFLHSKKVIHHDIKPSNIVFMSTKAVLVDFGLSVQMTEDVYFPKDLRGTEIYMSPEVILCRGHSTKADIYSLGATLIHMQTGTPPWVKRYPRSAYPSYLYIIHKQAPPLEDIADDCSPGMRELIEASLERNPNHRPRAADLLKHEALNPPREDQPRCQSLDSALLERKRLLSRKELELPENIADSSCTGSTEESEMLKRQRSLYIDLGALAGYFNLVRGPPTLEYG
Sequence of Dual specificity mitogen-activated protein kinase kinase 1 (Q02750 whole entry): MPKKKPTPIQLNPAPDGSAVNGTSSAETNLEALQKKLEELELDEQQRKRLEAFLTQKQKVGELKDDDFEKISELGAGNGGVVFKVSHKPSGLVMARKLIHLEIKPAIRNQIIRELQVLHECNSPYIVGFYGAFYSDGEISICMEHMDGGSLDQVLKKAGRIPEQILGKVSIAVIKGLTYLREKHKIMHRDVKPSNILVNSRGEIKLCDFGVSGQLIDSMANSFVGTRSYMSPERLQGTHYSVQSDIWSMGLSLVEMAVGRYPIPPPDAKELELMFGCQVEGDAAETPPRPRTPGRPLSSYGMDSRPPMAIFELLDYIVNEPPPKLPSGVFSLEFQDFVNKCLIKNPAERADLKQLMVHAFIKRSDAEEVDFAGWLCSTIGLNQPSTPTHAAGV

What is called pIC50 is the IC50 on a negative log10 scale, so that one unit is a factor of ten. As to `CN(C)C(=O)c1ccc(-c2ccc(Oc3cncc4sc(-c5nn[nH]n5)cc34)cc2)cc1`, the pIC50 is under 4.30 in assay [1], 4.32 in assay [2] and 7.30 in assay [3].
For `FC(F)(F)c1ccc(-c2ccc(Oc3cncc4sc(-c5nn[nH]n5)cc34)cc2)cc1`, the pIC50 in assay [1] is 5.77; in assay [2], 5.74; in assay [3], 6.55; in assay [4] it was 6.25.
As to `OCc1ccc(-c2ccc(Oc3cncc4sc(-c5nnn[nH]5)cc34)cc2)cc1`, the results for the pIC50 in assay [2] and in assay [3] were 4.85 and 7.40, respectively.
Turning to `NC(=O)c1ccc(-c2ccc(Oc3cncc4sc(-c5nn[nH]n5)cc34)cc2)cc1`, the results for the pIC50 in assay [2], in assay [3] and in assay [4] were 4.74, 8.00 and 6.89, respectively.
`Clc1ccccc1-c1ccc(Oc2cncc3sc(-c4nn[nH]n4)cc23)cc1`: the pIC50 was under 4.30 in assay [1], 5.82 in assay [2] and 6.82 in assay [3].
Turning to `Fc1ccc(-c2ccc(Oc3cncc4sc(-c5nn[nH]n5)cc34)cc2)cc1`, the pIC50 is 4.95 in assay [1], 5.12 in assay [2], 6.77 in assay [3] and 5.19 in assay [4].
On to `Nc1ccc(-c2ccc(Oc3cncc4sc(-c5nn[nH]n5)cc34)cc2)cc1`, for which the figures for the pIC50 in assay [1], in assay [2] and in assay [3] were 5.96, 5.82 and 6.64, respectively.
Regarding `c1ccc(-c2ccc(Oc3cncc4sc(-c5nn[nH]n5)cc34)cc2)cc1`, the pIC50 in assay [1] is 4.92; in assay [2] it was 5.01; in assay [3] it was 6.82; in assay [4], 5.37.
`COc1cccc(-c2ccc(Oc3cncc4sc(-c5nnn[nH]5)cc34)cc2)c1`: the pIC50 in assay [2] was 4.64; in assay [3], 6.62.
Taken in the same sequence, the figures for `COc1ccc(-c2ccc(Oc3cncc4sc(-c5nn[nH]n5)cc34)cc2)cc1` were 4.31 and 6.89.
As for `CC(=O)Nc1cc2c(Oc3ccc(I)cc3)cncc2s1`, in assay [3], the pIC50 was under 4.30.
The same measure, in the same setting: then `O=c1nc(-c2cc3c(Oc4ccc(I)cc4)cncc3s2)[nH]o1`, with 5.95; and `c1ccc(-c2cccc(Oc3cncc4sc(-c5nn[nH]n5)cc34)c2)cc1`, with 5.77.
In the case of `COc1ccccc1-c1ccc(Oc2cncc3sc(-c4nnn[nH]4)cc23)cc1`, the pIC50 in assay [2] is 4.66; in assay [3] it was 6.49.
In the case of `N#Cc1ccc(-c2ccc(Oc3cncc4sc(-c5nn[nH]n5)cc34)cc2)cc1`, the pIC50 was 4.33 in assay [1], 4.67 in assay [2] and 6.51 in assay [3].
In the case of `Ic1ccc(Oc2cncc3sc(-c4nn[nH]n4)cc23)cc1`, the pIC50 in assay [3] was 6.39.
On the same count and under the same terms, then `O=C(NO)c1cc2c(Oc3ccc(I)cc3)cncc2s1`, with 6.27.
Still for that read-out and setting: then `c1ccc(-c2ccccc2Oc2cncc3sc(-c4nn[nH]n4)cc23)cc1`, with 4.82.
On the same count and under the same terms, the figure for `Brc1ccc(Oc2cncc3sc(-c4nnn[nH]4)cc23)cc1` is 5.80; for `Clc1ccc(Oc2cncc3sc(-c4nnn[nH]4)cc23)cc1` it is 6.15.
`Clc1cccc(-c2ccc(Oc3cncc4sc(-c5nn[nH]n5)cc34)cc2)c1`: the pIC50 in assay [1] is under 4.30; in assay [2], 5.72; in assay [3] it was 6.92.
`O=C(O)c1cc2c(Oc3ccc(I)cc3)cncc2s1`: the pIC50 in assay [3] is 6.03.
Turning to `Clc1ccc(-c2ccc(Oc3cncc4sc(-c5nn[nH]n5)cc34)cc2)cc1`, the pIC50 is under 4.30 in assay [1], 5.62 in assay [2], 7.05 in assay [3] and 5.68 in assay [4].
For the compound `c1ccc(Oc2cncc3sc(-c4nn[nH]n4)cc23)cc1`, the pIC50 in assay [3] was 5.66.
The same measure, in the same setting: then `Nc1cc2c(Oc3ccc(I)cc3)cncc2s1`, with under 4.30; and `Cc1ccc(Oc2cncc3sc(-c4nn[nH]n4)cc23)cc1`, with 5.12; and `CC(C)(C)c1ccc(Oc2cncc3sc(-c4nn[nH]n4)cc23)cc1`, with 6.21.
